Reference: patent US20210077382A1, “COMPOSITIONS, DEVICES, AND METHODS FOR THE TREATMENT OF OPIOID-RECEPTOR-MEDIATED CONDITIONS” (Opiant Phamaceuticals, Inc., priority 2016, published 2021)

Assay: Clinical pharmacokinetic crossover study of IN, IM and oral naltrexone; plasma naltrexone and 6β-naltrexol by LC-MS/MS
From the text: Study Goals. […] Secondary endpoints included adverse events (AEs), vital signs (heart rate, sitting blood pressure, and respiration rate), electrocardiogram (ECG), clinical laboratory changes and nasal irritation using the nasal irritation scale.
Study design. […] This was an in-patient open-label, crossover study involving approximately 14 healthy volunteers. […] Subjects stayed in the in-patient facility for 13 days to complete the entire study. Subjects were called 3 to 5 days after discharge to inquire concerning AEs and concomitant medications since discharge. Informed consent was obtained from all subjects, and all were screened for eligibility to participate in the study, including medical history, physical examination, clinical chemistry, coagulation markers, hematology, infectious disease serology, urinalysis, urine drug and alcohol toxicology screen, vital signs and ECG.
On days of study drug administration, a 12-lead ECG was performed approximately 1 hour prior to dosing and at approximately 1 and 4 hours post-dose. Vital signs were measured pre-dose and about 1 and 4 hours post-dose.
Study Drugs and Dosing. […] The IN (40 mg/mL) formulations were made by the staff pharmacist at Vince & Associates; the vehicle for the IN formulations was sterile water for injection. The IM formulation (2 mg/mL) was made by the staff pharmacist at Vince & Associates; the vehicle was sterile saline for injection.
Subjects stayed in the in-patient facility for 13 days to complete the entire study and were discharged 2 days after the fourth dose.
PK Assessments. […] Plasma was separated from whole blood and stored frozen at […] until assayed.
Analysis. […] Dose-adjusted values for AUCs and Cmax were calculated. The relative extent of IN and PO absorption (IN and PO versus IM) will be estimated from the dose-corrected AUCs.

[1] = naltrexone 2 mg IM, N = 10, listed as 6β-Naltrexol
[2] = naltrexone 4 mg IN plus […] Intravail, N = 12

## Oc1ccc2c3c1O[C@H]1[C@H](O)CC[C@@]4(O)[C@@H](C2)N(CC2CC2)CC[C@]314 [6β-naltrexol]
IN, IM or PO administration, except naltrexone Cmax after 4 mg IN
  Difference between the sexes for the PK parameters: no clinically meaningful difference
After the IN administration of naltrexone
  Mean Cmax of 6β-naltrexol: approximately 3 ng/mL
After the oral dose
  Ratio of AUC0-inf for 6β-naltrexol compared to that of naltrexone: 25
Naltrexone 2 mg IM, N = 10
  AUC0-inf of 6β-naltrexol, mean (CV %): 27.1 ng·h/mL
  AUC0-inf/Dose of 6β-naltrexol, mean (CV %): 15.0 (19.0) h · ng/mL/mg
  AUC0-t of 6β-naltrexol, mean (CV %): 25.1 (18.3) h · ng/mL
  AUC0-t/Dose of 6β-naltrexol, mean (CV %): 13.9 (18.3) h · ng/mL/mg
  AUCextrap of 6β-naltrexol, mean (CV %): 7.02 (29.4) %
  Cmax of 6β-naltrexol, mean (CV %): 1.5 ng/mL
  Cmax/Dose of 6β-naltrexol, mean (CV %): 0.838 ng/mL/mg
  Tmax of 6β-naltrexol, median (minimum, maximum): 3.00 h
  t1/2 of 6β-naltrexol, mean (CV %): 12.4 (13.2) h
  λz of 6β-naltrexol, mean (CV %): 0.0570 (14.8) 1/h
[1]
  Cmax of 6β-naltrexol, mean (CV %): 1.52 (26.8) ng/mL
  Cmax/Dose of 6β-naltrexol, mean (CV %): 0.838 (26.8) ng/mL/mg
Naltrexone 2 mg IN, hour 0
  Mean concentration of 6β-naltrexol: 0.0661 ng/mL
Naltrexone 2 mg IN, hour 0.042
  Mean concentration of 6β-naltrexol: 0.0627 ng/mL
Naltrexone 2 mg IN, hour 0.083
  Mean concentration of 6β-naltrexol: 0.12 ng/mL
Naltrexone 2 mg IN, hour 0.17
  Mean concentration of 6β-naltrexol: 0.283 ng/mL
Naltrexone 2 mg IN, hour 0.25
  Mean concentration of 6β-naltrexol: 0.454 ng/mL
Naltrexone 2 mg IN, hour 0.33
  Mean concentration of 6β-naltrexol: 0.677 ng/mL
Naltrexone 2 mg IN, hour 0.5
  Mean concentration of 6β-naltrexol: 0.852 ng/mL
Naltrexone 2 mg IN, hour 0.75
  Mean concentration of 6β-naltrexol: 1.08 ng/mL
Naltrexone 2 mg IN, hour 1
  Mean concentration of 6β-naltrexol: 1.1 ng/mL
Naltrexone 2 mg IN, hour 2
  Mean concentration of 6β-naltrexol: 1.39 ng/mL
Naltrexone 2 mg IN, hour 3
  Mean concentration of 6β-naltrexol: 1.48 ng/mL
Naltrexone 2 mg IN, hour 4
  Mean concentration of 6β-naltrexol: 1.46 ng/mL
Naltrexone 2 mg IN, hour 6
  Mean concentration of 6β-naltrexol: 1.3 ng/mL
Naltrexone 2 mg IN, hour 8
  Mean concentration of 6β-naltrexol: 1.08 ng/mL
Naltrexone 2 mg IN, hour 12
  Mean concentration of 6β-naltrexol: 0.81 ng/mL
Naltrexone 2 mg IN, hour 16
  Mean concentration of 6β-naltrexol: 0.595 ng/mL
Naltrexone 2 mg IN, hour 24
  Mean concentration of 6β-naltrexol: 0.365 ng/mL
Naltrexone 2 mg IN, hour 30
  Mean concentration of 6β-naltrexol: 0.255 ng/mL
Naltrexone 2 mg IN, hour 36
  Mean concentration of 6β-naltrexol: 0.18 ng/mL
Naltrexone 2 mg IN, hour 48
  Mean concentration of 6β-naltrexol: 0.106 ng/mL
Naltrexone 4 mg IN + […] Intravail, hour 0
  Mean concentration of 6β-naltrexol: 0.0682 ng/mL
Naltrexone 4 mg IN + […] Intravail, hour 0.042
  Mean concentration of 6β-naltrexol: 0.082 ng/mL
Naltrexone 4 mg IN + […] Intravail, hour 0.083
  Mean concentration of 6β-naltrexol: 0.238 ng/mL
Naltrexone 4 mg IN + […] Intravail, hour 0.17
  Mean concentration of 6β-naltrexol: 0.994 ng/mL
Naltrexone 4 mg IN + […] Intravail, hour 0.25
  Mean concentration of 6β-naltrexol: 1.86 ng/mL
Naltrexone 4 mg IN + […] Intravail, hour 0.33
  Mean concentration of 6β-naltrexol: 2.55 ng/mL
Naltrexone 4 mg IN + […] Intravail, hour 0.5
  Mean concentration of 6β-naltrexol: 2.84 ng/mL
Naltrexone 4 mg IN + […] Intravail, hour 0.75
  Mean concentration of 6β-naltrexol: 2.93 ng/mL
Naltrexone 4 mg IN + […] Intravail, hour 1
  Mean concentration of 6β-naltrexol: 2.73 ng/mL
Naltrexone 4 mg IN + […] Intravail, hour 2
  Mean concentration of 6β-naltrexol: 2.9 ng/mL
Naltrexone 4 mg IN + […] Intravail, hour 3
  Mean concentration of 6β-naltrexol: 2.61 ng/mL
Naltrexone 4 mg IN + […] Intravail, hour 4
  Mean concentration of 6β-naltrexol: 2.45 ng/mL
Naltrexone 4 mg IN + […] Intravail, hour 6
  Mean concentration of 6β-naltrexol: 2.03 ng/mL
Naltrexone 4 mg IN + […] Intravail, hour 8
  Mean concentration of 6β-naltrexol: 1.67 ng/mL
Naltrexone 4 mg IN + […] Intravail, hour 12
  Mean concentration of 6β-naltrexol: 1.25 ng/mL
Naltrexone 4 mg IN + […] Intravail, hour 16
  Mean concentration of 6β-naltrexol: 0.923 ng/mL
Naltrexone 4 mg IN + […] Intravail, hour 24
  Mean concentration of 6β-naltrexol: 0.618 ng/mL
Naltrexone 4 mg IN + […] Intravail, hour 30
  Mean concentration of 6β-naltrexol: 0.457 ng/mL
Naltrexone 4 mg IN + […] Intravail, hour 36
  Mean concentration of 6β-naltrexol: 0.312 ng/mL
Naltrexone 4 mg IN + […] Intravail, hour 48
  Mean concentration of 6β-naltrexol: 0.175 ng/mL
[2]
  AUC0-inf of 6β-naltrexol, mean (CV %): 46.3 (18.3) h · ng/mL
  AUC0-inf/Dose of 6β-naltrexol, mean (CV %): 12.8 (18.3) h · ng/mL/mg
  AUC0-t of 6β-naltrexol, mean (CV %): 43.0 (17.4) h · ng/mL
  AUC0-t/Dose of 6β-naltrexol, mean (CV %): 11.9 (17.4) h · ng/mL/mg
  AUCextrap of 6β-naltrexol, mean (CV %): 7.02 (37.3) %
  Cmax of 6β-naltrexol, mean (CV %): 3.29 (23.7) ng/mL
  Cmax/Dose of 6β-naltrexol, mean (CV %): 0.908 (23.7) ng/mL/mg
  Tmax of 6β-naltrexol, median (minimum, maximum): 0.75 h
  t1/2 of 6β-naltrexol, mean (CV %): 12.8 (14.6) h
  λz of 6β-naltrexol, mean (CV %): 0.0553 (15.1) 1/h
Naltrexone 4 mg IN, N = 13
  AUC0-inf of 6β-naltrexol, mean (CV %): 44.0 ng·h/mL
  AUC0-inf/Dose of 6β-naltrexol, mean (CV %): 12.2 (23.1) h · ng/mL/mg
  AUC0-t of 6β-naltrexol, mean (CV %): 40.3 (23.3) h · ng/mL
  AUC0-t/Dose of 6β-naltrexol, mean (CV %): 11.1 (23.3) h · ng/mL/mg
  AUCextrap of 6β-naltrexol, mean (CV %): 8.57 (46.1) %
  Cmax of 6β-naltrexol, mean (CV %): 3.01 (33.2) ng/mL
  Cmax/Dose of 6β-naltrexol, mean (CV %): 0.833 ng/mL/mg
  Tmax of 6β-naltrexol, median (minimum, maximum): 2.00 h
  t1/2 of 6β-naltrexol, mean (CV %): 13.7 (22.7) h
  λz of 6β-naltrexol, mean (CV %): 0.0530 h⁻¹
Naltrexone 4 mg IN, N = 13, listed as 6β-Naltrexol
  Cmax/Dose of 6β-naltrexol, mean (CV %): 0.833 (33.2) ng/mL/mg
Naltrexone 4 mg IN, hour 0
  Mean concentration of 6β-naltrexol: 0 ng/mL
Naltrexone 4 mg IN, hour 0.042
  Mean concentration of 6β-naltrexol: 0 ng/mL
Naltrexone 4 mg IN, hour 0.083
  Mean concentration of 6β-naltrexol: 0.0321 ng/mL
Naltrexone 4 mg IN, hour 0.17
  Mean concentration of 6β-naltrexol: 0.196 ng/mL
Naltrexone 4 mg IN, hour 0.25
  Mean concentration of 6β-naltrexol: 0.45 ng/mL
Naltrexone 4 mg IN, hour 0.33
  Mean concentration of 6β-naltrexol: 0.693 ng/mL
Naltrexone 4 mg IN, hour 0.5
  Mean concentration of 6β-naltrexol: 1.11 ng/mL
Naltrexone 4 mg IN, hour 0.75
  Mean concentration of 6β-naltrexol: 1.82 ng/mL
Naltrexone 4 mg IN, hour 1
  Mean concentration of 6β-naltrexol: 1.83 ng/mL
Naltrexone 4 mg IN, hour 2
  Mean concentration of 6β-naltrexol: 2.68 ng/mL
Naltrexone 4 mg IN, hour 3
  Mean concentration of 6β-naltrexol: 2.61 ng/mL
Naltrexone 4 mg IN, hour 4
  Mean concentration of 6β-naltrexol: 2.37 ng/mL
Naltrexone 4 mg IN, hour 6
  Mean concentration of 6β-naltrexol: 1.97 ng/mL
Naltrexone 4 mg IN, hour 8
  Mean concentration of 6β-naltrexol: 1.62 ng/mL
Naltrexone 4 mg IN, hour 12
  Mean concentration of 6β-naltrexol: 1.26 ng/mL
Naltrexone 4 mg IN, hour 16
  Mean concentration of 6β-naltrexol: 0.919 ng/mL
Naltrexone 4 mg IN, hour 24
  Mean concentration of 6β-naltrexol: 0.602 ng/mL
Naltrexone 4 mg IN, hour 30
  Mean concentration of 6β-naltrexol: 0.418 ng/mL
Naltrexone 4 mg IN, hour 36
  Mean concentration of 6β-naltrexol: 0.292 ng/mL
Naltrexone 4 mg IN, hour 48
  Mean concentration of 6β-naltrexol: 0.184 ng/mL
Naltrexone 50 mg Oral, N = 10
  AUC0-inf of 6β-naltrexol, mean (CV %): 675 ng·h/mL
  AUC0-inf/Dose of 6β-naltrexol, mean (CV %): 14.9 (19.9) h · ng/mL/mg
  AUC0-t of 6β-naltrexol, mean (CV %): 614 (19.5) h · ng/mL
  AUC0-t/Dose of 6β-naltrexol, mean (CV %): 13.6 (19.5) h · ng/mL/mg
  AUCextrap of 6β-naltrexol, mean (CV %): 8.79 (57.3) %
  Cmax of 6β-naltrexol, mean (CV %): 90.7 ng/mL
  Cmax/Dose of 6β-naltrexol, mean (CV %): 2.00 ng/mL/mg
  Tmax of 6β-naltrexol, median (minimum, maximum): 0.63 h
  t1/2 of 6β-naltrexol, mean (CV %): 13.9 (15.9) h
  λz of 6β-naltrexol, mean (CV %): 0.0510 (15.8) 1/h
Naltrexone 50 mg Oral, N = 10, listed as 6β-Naltrexol
  Cmax/Dose of 6β-naltrexol, mean (CV %): 2.00 (30.3) ng/mL/mg
Naltrexone 50 mg Oral, hour 0
  Mean concentration of 6β-naltrexol: 0.0454 ng/mL
Naltrexone 50 mg Oral, hour 0.042
  Mean concentration of 6β-naltrexol: 0.0448 ng/mL
Naltrexone 50 mg Oral, hour 0.083
  Mean concentration of 6β-naltrexol: 1.4 ng/mL
Naltrexone 50 mg Oral, hour 0.17
  Mean concentration of 6β-naltrexol: 14.2 ng/mL
Naltrexone 50 mg Oral, hour 0.25
  Mean concentration of 6β-naltrexol: 31.6 ng/mL
Naltrexone 50 mg Oral, hour 0.33
  Mean concentration of 6β-naltrexol: 45.5 ng/mL
Naltrexone 50 mg Oral, hour 0.5
  Mean concentration of 6β-naltrexol: 68.7 ng/mL
Naltrexone 50 mg Oral, hour 0.75
  Mean concentration of 6β-naltrexol: 60.8 ng/mL
Naltrexone 50 mg Oral, hour 1
  Mean concentration of 6β-naltrexol: 58.6 ng/mL
Naltrexone 50 mg Oral, hour 2
  Mean concentration of 6β-naltrexol: 54 ng/mL
Naltrexone 50 mg Oral, hour 3
  Mean concentration of 6β-naltrexol: 45.8 ng/mL
Naltrexone 50 mg Oral, hour 4
  Mean concentration of 6β-naltrexol: 38 ng/mL
Naltrexone 50 mg Oral, hour 6
  Mean concentration of 6β-naltrexol: 28.5 ng/mL
Naltrexone 50 mg Oral, hour 8
  Mean concentration of 6β-naltrexol: 22.2 ng/mL
Naltrexone 50 mg Oral, hour 12
  Mean concentration of 6β-naltrexol: 15.4 ng/mL
Naltrexone 50 mg Oral, hour 16
  Mean concentration of 6β-naltrexol: 11.4 ng/mL
Naltrexone 50 mg Oral, hour 24
  Mean concentration of 6β-naltrexol: 8.14 ng/mL
Naltrexone 50 mg Oral, hour 30
  Mean concentration of 6β-naltrexol: 5.93 ng/mL
Naltrexone 50 mg Oral, hour 36
  Mean concentration of 6β-naltrexol: 4.35 ng/mL
Naltrexone 50 mg Oral, hour 48
  Mean concentration of 6β-naltrexol: 2.43 ng/mL
Oral vs IN and IM
  Dose-adjusted Cmax of 6β-naltrexol after oral administration, higher than after IN and IM doses: approximately 2 fold
